In data set [1] the test system is human hematopoietic progenitors. Nature of the data set: In vitro bone marrow culture, colony formation in methylcellulose. The format is cell-based. The method, then:
In vitro bone marrow culture. Light density cells separated by density gradient centrifugation (Lymphocyte Separation Medium, ICN Pharmaceutical, Costa Mesa, Calif.) from normal human BM donors were plated in methylcellulose medium with recombinant cytokines. This medium, MethoCult GF (Stem Cell Technologies, Vancouver, Canada), contains stem cell factor 50 ng/ml, GM-CSF 10 ng/ml, IL-3 10 ng/ml and erythropoietin 3 units/ml. 5×10^4 BM cells/dish were cultured with TNP-470 at concentrations ranging from 1 mcg/ml to […], with duplicate cultures at each dose. The plates were scored after 14 days of culture, enumerating colony-forming unit granulocyte/macrophage (CFU-GM), CFU-mix, CFU-erythrocyte and burst-forming unit erythrocyte (CFU-E and BFU-E).
Effect of TNP-470 on bone marrow colony-forming cells. Although hematologic toxicity has not been described in the TNP-470 phase I trials (24, 25), there is one report of in vitro evidence of BM toxicity (16). In order to confirm this finding, we investigated the effect of relatively high concentrations of TNP-470 (0-100 μg/ml) on growth of human hematopoietic progenitors in standard methylcellulose culture. […] Although this assay is not necessarily predictive of in vivo BM toxicity, the result emphasizes the need to develop a pre-clinical model of stem cell transplantation to assess the effect of AIs on engraftment.

For data set [2] the following is noted: cited from earlier work.
Data set [3] is described as follows: Recovery of peripheral blood counts and marrow cellularity after stem cell rescue. The format is in vivo, FVB mice. The method, then: (§1) Compound (drug). TNP-470 was provided by TAP Pharmaceuticals (Deerfield, Ill.). Prior to use, TNP-470 was reconstituted in sterile saline, aliquoted and stored at −80° C. TNP-470 was used at a dose of 20-100 mg/kg given SQ three times per week beginning at day 0 or at a dose of 10-20 mg/kg/week given by continuous intraperitoneal infusion using an Alzet infusion pump (Alza Co., Palo Alto, Calif.). The continuous TNP-470 infusion began on the day prior to transplant to allow for pump implantation (see below).
Alzet infusion pump placement. Using sterile technique following anesthesia, a 1 cm midline abdominal incision was made and 14 day Alzet micro-osmotic pumps (0.25 μl/hr, model 1002) containing either TNP-470 or saline were placed intraperitoneally. The peritoneum and skin were then secured separately using 4.0 vicryl suture. The animals were allowed to recover overnight and then subjected to TBI and stem cell infusion on the following day.
Analysis of engraftment. […] Following cervical dislocation, BM and splenocytes were collected from recipient mice. Analysis was performed after red cell lysis with NH4Cl. For flow cytometric analysis of lymphoid engraftment, Tg IgM expressed only in B cells derived from the donor was detected by antibodies recognizing human IgM (RAHM; Jackson ImmunoResearch, West Grove, Pa.) and mouse CD45R (B220, Pharmingen, Torreyana, Calif.) in a two-color protocol on a FACS Caliber cytometer (Becton-Dickinson, Franklin Lakes, N.J.). Splenocytes from untransplanted Tg− and Tg+ mice provided negative and positive controls, respectively. Lymphoid engraftment was defined as the percentage of lymphoid cells in spleen and BM that were B220/RAHM positive. In addition to flow cytometry, genomic DNA from tail snips, blood, BM, and splenocytes was analyzed by PCR for the presence of the transgene, using a procedure and primers previously reported (15). The transgene was detectable by PCR in all donor-derived cells in the recipient, while the tail snips of Tg− mice provided a negative control. Genomic DNA was also isolated from splenic and peripheral blood T cells. Splenic T cells were isolated using the Cellect T isolation column (Biotex, Edmonton, Canada) according to the manufacturer's protocol. Peripheral blood T cells were sorted on the FACS Vantage (Becton-Dickson) after staining with antibodies recognizing mouse CD3 (Pharmingen). Recovery of peripheral blood counts was also analyzed. Blood was collected from cardiac puncture and placed in EDTA tubes (Becton-Dickson). Analysis was then performed with a HemeVet (CDC Technologies) instrument using mouse-specific parameters. Hemoglobin was measured and white blood cells (WBC) and platelets were enumerated.

Data set [4] has as its system neuroblastoma cell lines. Conditions: first administered ten days after inoculation with two different neuroblastoma cell lines; cited from earlier work.
Data set [5] can be described thus: Survival and toxicity after TBI and stem cell rescue in the mouse stem cell transplant model. Format: in vivo, FVB mice.
From the text: Donors, recipients and preparative regimen. Transgenic mice expressing a human IgM Tg in the FVB background were used as the donor source of bone marrow stem cells for transplantation. The FVB strain of inbred mice is frequently utilized in the generation of transgenic animals. Marrow was collected from Tg+ mice from femurs flushed with sterile PBS. Recipients were FVB mice (Jackson Laboratory, Bar Harbor, Me.) or Tg negative littermates of the Tg positive donors, treated in groups of 5-8 animals/intervention. Recipients received total body irradiation (TBI) in an M38-1 Irradiator (Isomedix) at a dose rate of 2.7 Gy/min in a mixed/split fashion with a 3 hour interfraction interval to allow a higher dose of radiation without significant gastrointestinal toxicity. After completion of TBI, mice received stem cells via tail vein injection. The mice were maintained in a temperature controlled humidified area in autoclaved microisolator cages and fed ad libitum and provided acidified water. Mice were assessed three times weekly after stem cell infusion. These studies were approved by the Animal Care and Use Committee of the Children's Hospital of Philadelphia.
as §1
Effect of TNP-470 on engraftment. Several dose levels of TNP-470 were explored to assess any effect on BM engraftment and engraftment kinetics. Immediately following lethal irradiation and tail vein injection of Tg+ BM cells, recipient mice were given either TNP-470 or saline starting on day 0. Dose schedules were also varied from a single dose at the time of stem cell infusion to an initial dose on day 0 followed by administration of TNP-470 or saline 3 times a week (Table 3). Mice were initially sacrificed on days 28-32 at all dose levels. Comparative kinetics were then further analyzed by sacrificing groups of mice at day 21, day 24, and day 28 at dose level 3.

The source of these data is US20030100605A1, “Methods of treating cancer with angiogenesis inhibitors” (priority 2001, published 2003).

The inhibition is the share of the control response that was lost under treatment.

Turning to `CO[C@@H]1[C@H](OC(=O)NC(=O)CCl)CC[C@@]2(CO2)[C@H]1[C@]1(C)O[C@@H]1CC=C(C)C` [TNP-470], the inhibition at 4 µg/mL in data set [1] (Homo sapiens, 336 h, TNP-470 4 μg/ml, myeloid and erythroid colonies, 14 days culture) is above 80%. For the same compound, the “inhibition of colony-forming cells” value in data set [1] (higher doses than 4 μg/ml (range 0-100 μg/ml)) was “complete inhibition”. The “hematologic toxicity in Phase I trials” value in data set [2] (Phase I trials) is “no significant hematologic toxicity”. For the same compound, in data set [2] (one-hour intravenous infusions, three times a week, intermittent schedule), the “maximal tolerated dose (MTD)” value is on record as 60 mg/m^2. The WBC was 6300 µL⁻¹ in data set [3] (continuous infusion); 6.3 ± 0.4 10^3/μL in data set [3] (day 28 post BMT, continuous infusion IP via Alzet pump at 10 mg/kg/wk, mean ± SEM); 3.6 ± 0.7 10^3/μL in data set [3] (day 28 post BMT, intermittent dosing, dose level 3, SQ three times/wk, mean ± SEM). For the same compound, the “hemoglobin or platelet recovery versus control” value in data set [3] (continuous infusion 10 mg/kg/week) is reported as “no significant differences”. In data set [3] (day 28, dose level 3, femurs), the “marrow cellularity versus controls” value was “no difference”. Further, the “hemoglobin or platelet count versus control” value in data set [3] (intermittent (bolus) dosing) is “No statistical differences”. In addition, in data set [3] (intermittent TNP-470), the “mean white blood cell count” value worked out at 3600 µL⁻¹. Further, in data set [4], the “effect on primary tumor and metastases” value is “decreased the primary tumor volume and the size and number of lymph node and liver metastases”. The compound further came in with an Overall survival in data set [5] (all dose levels, after stem cell rescue) of 66%. For the same compound, in data set [5] (dose level 1 (20 mg/kg on day 0 and then thrice weekly), at completion of the experiment), the survival rate was 57%. In data set [5] (dose level 2 (100 mg/kg on day 0 only), day 28-32), the “survived to experiment completion” value worked out at 71%. Further, in data set [5] (dose level 4 (100 mg/kg 3×/week)), the weight loss entry is recorded as “greater weight loss than the control animals”. Besides, in data set [5] (dose level 4 (100 mg/kg 3×/week), SQ), the skin irritation entry is given as “evidence of skin irritation at the injection sites”.
